Measured values taken from ChEMBL document CHEMBL3244232, “Steric effects of substituents on phenethylamine hallucinogens. 3,4-(Methylenedioxy)amphetamine analogues alkylated on the dioxole ring” (J Med Chem, 1979).
Calls of active or inactive are those of the source. The rule behind the calls is not given here.

Assays:
Mus musculus [1] = experiment: Induction of spontaneous activity in Swiss Webster mouse assessed as spontaneous activity counts at 0.225 mmol/kg, ip measured over 90 mins; assay type: functional
Mus musculus [2] = experiment: Induction of hyperactivity in Swiss Webster mouse assessed as grooming at 0.225 to 0.3 mmol/kg, ip up to 90 mins; assay type: functional, organism-based
Mus musculus [3] = experiment: Effect on Swiss Webster mouse assessed as sleeping at 0.025 to 0.3 mmol/kg, ip; assay type: ADME, organism-based; details: in vivo
[4] = Octanol-water partition coefficient, log P of the compound; assay type: physicochemical
Mus musculus [5] = experiment: Induction of hyperactivity in Swiss Webster mouse assessed as exploratory behavior at 0.025 to 0.3 mmol/kg, ip up to 90 mins; assay type: functional, organism-based
[6] = Toxicity in ip dosed Swiss Webster mouse after 5 mins; assay type: organism-based; details: in vivo
Mus musculus [7] = experiment: Toxicity in Swiss Webster mouse assessed as symmetric clonic convulsions with vocalization at 0.675 mmol/kg, ip after 2 to 3 mins; assay type: organism-based; details: in vivo
Mus musculus [8] = experiment: Induction of spontaneous activity in Swiss Webster mouse assessed as spontaneous activity counts at 0.075 mmol/kg, ip measured over 90 mins; assay type: functional
Mus musculus [9] = experiment: Induction of spontaneous activity in Swiss Webster mouse assessed as spontaneous activity counts at 0.025 mmol/kg, ip measured over 90 mins; assay type: functional
Mus musculus [10] = experiment: Induction of hyperactivity in Swiss Webster mouse assessed as pilomotor erection at 0.025 to 0.3 mmol/kg, ip up to 90 mins; assay type: functional, organism-based
Mus musculus [11] = experiment: Induction of hyperactivity in Swiss Webster mouse assessed as salivation at 0.025 to 0.3 mmol/kg, ip up to 90 mins; assay type: functional, organism-based
Mus musculus [12] = experiment: Toxicity in Swiss Webster mouse assessed as tremor at 0.675 mmol/kg, ip after 2 to 3 mins; assay type: organism-based; details: in vivo
Mus musculus [13] = experiment: Induction of hyperactivity in Swiss Webster mouse assessed as grooming at 0.025 to 0.3 mmol/kg, ip up to 90 mins; assay type: functional, organism-based
Mus musculus [14] = experiment: Induction of spontaneous activity in Swiss Webster mouse assessed as spontaneous activity counts at 0.30 mmol/kg, ip measured over 90 mins; assay type: functional
Mus musculus [15] = experiment: Induction of hyperactivity in Swiss Webster mouse assessed as sniffing at 0.025 to 0.3 mmol/kg, ip up to 90 mins; assay type: functional, organism-based
Mus musculus [16] = experiment: Induction of hyperactivity in Swiss Webster mouse assessed as salivation at 0.225 to 0.3 mmol/kg, ip up to 90 mins; assay type: functional, organism-based
Mus musculus [17] = experiment: Toxicity in Swiss Webster mouse assessed as ataxia at 0.675 mmol/kg, ip after 2 to 3 mins; assay type: organism-based; details: in vivo
Mus musculus [18] = experiment: Induction of hyperactivity in Swiss Webster mouse assessed as exopthalmia at 0.025 to 0.3 mmol/kg, ip up to 90 mins; assay type: functional, organism-based
Mus musculus [19] = experiment: Induction of hyperactivity in Swiss Webster mouse assessed as exopthalmia at 0.225 to 0.3 mmol/kg, ip up to 90 mins; assay type: functional, organism-based
Mus musculus [20] = experiment: Toxicity in Swiss Webster mouse assessed as mortality at 0.675 mmol/kg, ip after 5 mins; assay type: organism-based; details: in vivo
Mus musculus [21] = experiment: Effect on Swiss Webster mouse assessed as sleeping at 0.3 mmol/kg, ip after 20 mins; assay type: ADME, organism-based; details: in vivo
[22] = Chemical stability of the compound at 0.1 M at pH 5.3 at 37 degC after 24 hrs by 1H NMR spectroscopy; assay type: physicochemical; details: buffer, pH 5.3, 24 h
Mus musculus [23] = experiment: Toxicity in Swiss Webster mouse assessed as tremor at 0.675 mmol/kg, ip after 8 to 10 mins; assay type: organism-based; details: in vivo
Mus musculus [24] = experiment: Induction of hyperactivity in Swiss Webster mouse assessed as piloerection at <0.3 mmol/kg, ip up to 90 mins; assay type: functional, organism-based
Mus musculus [25] = experiment: Induction of hyperactivity in Swiss Webster mouse assessed as salivation at <0.3 mmol/kg, ip up to 90 mins; assay type: functional, organism-based
Mus musculus [26] = experiment: Toxicity in Swiss Webster mouse assessed as clonic convulsions at 0.675 mmol/kg, ip after 8 to 10 mins; assay type: organism-based; details: in vivo
Mus musculus [27] = experiment: Toxicity in Swiss Webster mouse assessed as depression at <0.3 mmol/kg, ip up to 90 mins; assay type: organism-based; details: in vivo, 1.5 h
Mus musculus [28] = experiment: Induction of hyperactivity in Swiss Webster mouse assessed as exopthalmia at <0.3 mmol/kg, ip up to 90 mins; assay type: functional, organism-based
Mus musculus [29] = experiment: Toxicity in Swiss Webster mouse assessed as mortality at 0.338 mmol/kg, ip after 5 mins; assay type: organism-based; details: in vivo
Mus musculus [30] = experiment: Induction of hyperactivity in Swiss Webster mouse assessed as grooming at <0.3 mmol/kg, ip up to 90 mins; assay type: functional, organism-based
Mus musculus [31] = experiment: Induction of hyperactivity in Swiss Webster mouse assessed as exploratory behavior at <0.3 mmol/kg, ip up to 90 mins; assay type: functional, organism-based
Mus musculus [32] = experiment: Toxicity in Swiss Webster mouse assessed as occasional tremor at 0.3 mmol/kg, ip up to 20 mins; assay type: organism-based; details: in vivo
Mus musculus [33] = experiment: Induction of hyperactivity in Swiss Webster mouse assessed as sniffing at <0.3 mmol/kg, ip up to 90 mins; assay type: functional, organism-based
Mus musculus [34] = experiment: Effect on Swiss Webster mouse assessed as sleeping at <0.3 mmol/kg, ip up to 90 mins; assay type: ADME, organism-based; details: in vivo, 1.5 h
Mus musculus [35] = experiment: Toxicity in Swiss Webster mouse assessed as recovery at 0.675 mmol/kg, ip after 30 mins; assay type: organism-based; details: in vivo, 0.5 h
Mus musculus [36] = experiment: Effect on Swiss Webster mouse assessed as sleeping at 0.675 mmol/kg, ip after 1 hr; assay type: ADME, organism-based; details: in vivo
Mus musculus [37] = experiment: Toxicity in Swiss Webster mouse assessed as clonic convulsions at 0.3 mmol/kg, ip up to 20 mins; assay type: organism-based; details: in vivo

| SMILES | Activity (Mus musculus [1]) | logP [4] | Activity (Mus musculus [5]) | MTD at 5 min [6] | Activity (Mus musculus [8]) | Activity (Mus musculus [9]) | Activity (Mus musculus [10]) | Activity (Mus musculus [11]) | Activity (Mus musculus [13]) | Activity (Mus musculus [14]) | Activity (Mus musculus [15]) | Activity (Mus musculus [18]) | Activity (Mus musculus [20]) | other results |
| --- | --- | --- | --- | --- | --- | --- | --- | --- | --- | --- | --- | --- | --- | --- |
| CC(N)Cc1ccc2c(c1)OC(C)O2 (centres undefined) | 94 min⁻¹ | 2.1 | Active | 300 µmol/kg | 25 min⁻¹ | 39 min⁻¹ | Active | Active | Active | 192 min⁻¹ | Active | Active | Toxic | Activity (Mus musculus [2]): Active; Activity (Mus musculus [3]): Non-toxic; Activity (Mus musculus [7]): Toxic; Activity (Mus musculus [12]): Toxic; Activity (Mus musculus [16]): Active; Activity (Mus musculus [17]): Toxic; Activity (Mus musculus [19]): Active |
| CC(N)Cc1ccc2c(c1)OC(C)(C)O2 (centres undefined) | 17 min⁻¹ | 2.6 | – | 338 µmol/kg | 27 min⁻¹ | 30 min⁻¹ | – | – | – | 33 min⁻¹ | – | – | Toxic | Activity (Mus musculus [21]): Non-toxic; Stability [22]: Stable; Activity (Mus musculus [23]): Toxic; Activity (Mus musculus [24]): inactive; Activity (Mus musculus [25]): inactive; Activity (Mus musculus [26]): Toxic; Activity (Mus musculus [27]): Toxic; Activity (Mus musculus [28]): inactive; Activity (Mus musculus [29]): Toxic; Activity (Mus musculus [30]): inactive; Activity (Mus musculus [31]): inactive; Activity (Mus musculus [32]): Toxic; Activity (Mus musculus [33]): inactive; Activity (Mus musculus [34]): Non-toxic; Activity (Mus musculus [35]): Non-toxic; Activity (Mus musculus [36]): Non-toxic; Activity (Mus musculus [37]): Toxic |
| CC(N)Cc1ccc2c(c1)OCO2 (centres undefined) [TENAMFETAMINE] | 105 min⁻¹ | 1.64 | Active | – | 276 min⁻¹ | 64 min⁻¹ | Active | Active | Active | – | Active | Active | – | – |
